Test results from US10246432B2, “4-(3-cyanophenyl)-6-pyridinylpyrimidine mGlu5 modulators” (Heptares Therapeutics Limited, priority 2013, dated 2019).

Biological target: hippocampal mGlu5 receptors (Rattus norvegicus (Rat), UniProt P31424)
Assay: Ex vivo mGlu5 receptor occupancy
Type: in vivo
Conditions: Sprague Dawley rats, 1-10 mg/kg po, one hour post-dose, hippocampal CA3 sections, [3H]-M-MPEP autoradiography, read-out: estimated ED50 (receptor occupancy)
Procedure: Ex Vivo mGlu5 Receptor Occupancy
One hour post-dose, animals were sacrificed and whole brains removed, rinsed and blot dried. A coronal block was cut containing the hippocampus and divided along the mid-line and rapidly frozen in isopentane for sectioning and autoradiography. Coronal half-brain sections were cut 20 μm thick, approximately 4 mm posterior to the bregma, to incorporate the hippocampal CA3 region. Three adjacent sections were mounted onto slides and incubated with 2 nM [^3H]-M-MPEP (total binding) or 2 nM [^3H]-M-MPEP and 10 μM fenobam (non-specific binding, Tocris bioscience, catalogue number 2386) for 10 min at room temperature. Binding was terminated by aspiration and washing with ice-cold assay buffer (4×5 min) and sections allowed to air dry. Levels of bound radioactivity in the sections were determined using a beta imager over a 16 h period. Occupancy was determined as mean specific binding with the vehicle treated control taken as 100%.

Sequence of hippocampal mGlu5 receptors (P31424 21-1203): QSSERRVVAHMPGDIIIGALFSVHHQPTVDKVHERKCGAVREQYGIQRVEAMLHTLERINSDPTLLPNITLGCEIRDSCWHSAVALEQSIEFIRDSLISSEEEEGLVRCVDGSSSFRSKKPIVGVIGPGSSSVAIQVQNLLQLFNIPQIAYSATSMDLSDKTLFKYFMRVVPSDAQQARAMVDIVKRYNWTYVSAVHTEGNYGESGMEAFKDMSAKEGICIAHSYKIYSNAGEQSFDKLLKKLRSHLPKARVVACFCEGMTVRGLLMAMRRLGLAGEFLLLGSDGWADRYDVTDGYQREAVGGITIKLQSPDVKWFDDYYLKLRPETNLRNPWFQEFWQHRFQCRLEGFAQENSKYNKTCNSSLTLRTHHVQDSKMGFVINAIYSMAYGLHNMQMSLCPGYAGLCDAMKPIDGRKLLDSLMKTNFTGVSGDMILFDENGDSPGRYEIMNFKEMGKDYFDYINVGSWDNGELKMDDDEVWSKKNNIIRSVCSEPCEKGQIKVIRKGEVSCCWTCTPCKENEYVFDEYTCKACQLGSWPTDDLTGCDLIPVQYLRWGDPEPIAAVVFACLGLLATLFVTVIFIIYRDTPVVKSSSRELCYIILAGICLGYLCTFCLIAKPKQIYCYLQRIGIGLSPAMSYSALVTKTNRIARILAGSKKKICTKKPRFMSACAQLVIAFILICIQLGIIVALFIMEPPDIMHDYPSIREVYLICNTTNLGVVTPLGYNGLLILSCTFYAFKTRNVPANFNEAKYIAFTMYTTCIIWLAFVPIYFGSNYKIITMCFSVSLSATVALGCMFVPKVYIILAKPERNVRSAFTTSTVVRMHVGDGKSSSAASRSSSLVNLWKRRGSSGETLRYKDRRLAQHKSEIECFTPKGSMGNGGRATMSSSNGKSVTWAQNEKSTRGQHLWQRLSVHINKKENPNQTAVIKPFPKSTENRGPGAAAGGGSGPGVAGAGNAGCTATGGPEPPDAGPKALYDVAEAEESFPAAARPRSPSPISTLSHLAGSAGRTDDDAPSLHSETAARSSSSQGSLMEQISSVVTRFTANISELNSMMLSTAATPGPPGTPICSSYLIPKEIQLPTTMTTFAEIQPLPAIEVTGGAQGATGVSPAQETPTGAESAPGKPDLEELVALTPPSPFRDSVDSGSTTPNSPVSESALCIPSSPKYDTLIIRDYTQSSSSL

Compound	ED50 [mg/kg]
N#Cc1cc(Cl)cc(-c2cc(-c3ccccn3)ncn2)c1 [Example 2, 3-chloro-5-[6-(pyridin-2-yl)pyrimidin-4-yl]benzonitrile]	2.8
N#Cc1cc(C#N)cc(-c2cc(-c3ccc(F)cn3)ncn2)c1 [Example 18, 5-[6-(5-fluoropyridin-2-yl)pyrimidin-4-yl]benzene-1,3-dicarbonitrile]	2.9
N#Cc1cc(Cl)cc(-c2cc(-c3ccc(F)cn3)ncn2)c1 [Example 17, 3-chloro-5-[6-(5-fluoropyridin-2-yl)pyrimidin-4-yl]benzonitrile]	0.3

Biological target: human mGlu5 receptor (Homo sapiens (Human), UniProt P41594)
Assay: [3H]-M-MPEP radioligand binding assay
Conditions: competition with [3H]-M-MPEP, membranes of HEK293 cells transfected with human mGlu5
Procedure: Biological Methods Membrane Preparation
cDNA encoding the human mGlu5 receptor was transfected into HEK293 cells using the transfection reagent Genejuice (Novagen). Forty-eight hours after transfection, cells were harvested and washed twice with ice cold phosphate-buffered saline. The pellet was re-suspended in ice-cold buffer containing 20 mM Tris-HCl, pH 7.4, 1 mM EDTA and homogenised with an Ultraturax for 30 s at maximum speed. The suspension was centrifuged (800×g for 5 min at 4° C.) and supernatant collected. Supernatant was centrifuged (40,000×g for 30 min at 4° C.). The resulting pellet was re-suspended and frozen at −80° C. before use. Protein concentration was determined using the BCA protein assay method (Merck Chemicals Ltd).
[^3H]-M-MPEP Radioligand Binding Assay
After thawing, membrane homogenates were re-suspended in the binding buffer (50 mM HEPES pH 7.5, 150 mM NaCl) to a final assay concentration of 2.5 μg protein per well. […] At the end of the incubation, membranes were filtered onto a 96-well GF/B filter pre-incubated with 0.1% polyethylenimine, with a Tomtec cell harvester and washed 5 times with 0.5 mL distilled water. Non-specific binding (NSB) was measured in the presence of 0.1 mM MPEP hydrochloride (Tocris bioscience, catalogue number 1212). Radioactivity on the filter was counted (1 min) on a microbeta counter after addition of 50 μL of scintillation fluid. […] IC50 values were derived from the inhibition curve and the equilibrium dissociation constant (Ki) values were calculated using the Cheng-Prussoff equation.

Sequence of human mGlu5 receptor (P41594 21-1212): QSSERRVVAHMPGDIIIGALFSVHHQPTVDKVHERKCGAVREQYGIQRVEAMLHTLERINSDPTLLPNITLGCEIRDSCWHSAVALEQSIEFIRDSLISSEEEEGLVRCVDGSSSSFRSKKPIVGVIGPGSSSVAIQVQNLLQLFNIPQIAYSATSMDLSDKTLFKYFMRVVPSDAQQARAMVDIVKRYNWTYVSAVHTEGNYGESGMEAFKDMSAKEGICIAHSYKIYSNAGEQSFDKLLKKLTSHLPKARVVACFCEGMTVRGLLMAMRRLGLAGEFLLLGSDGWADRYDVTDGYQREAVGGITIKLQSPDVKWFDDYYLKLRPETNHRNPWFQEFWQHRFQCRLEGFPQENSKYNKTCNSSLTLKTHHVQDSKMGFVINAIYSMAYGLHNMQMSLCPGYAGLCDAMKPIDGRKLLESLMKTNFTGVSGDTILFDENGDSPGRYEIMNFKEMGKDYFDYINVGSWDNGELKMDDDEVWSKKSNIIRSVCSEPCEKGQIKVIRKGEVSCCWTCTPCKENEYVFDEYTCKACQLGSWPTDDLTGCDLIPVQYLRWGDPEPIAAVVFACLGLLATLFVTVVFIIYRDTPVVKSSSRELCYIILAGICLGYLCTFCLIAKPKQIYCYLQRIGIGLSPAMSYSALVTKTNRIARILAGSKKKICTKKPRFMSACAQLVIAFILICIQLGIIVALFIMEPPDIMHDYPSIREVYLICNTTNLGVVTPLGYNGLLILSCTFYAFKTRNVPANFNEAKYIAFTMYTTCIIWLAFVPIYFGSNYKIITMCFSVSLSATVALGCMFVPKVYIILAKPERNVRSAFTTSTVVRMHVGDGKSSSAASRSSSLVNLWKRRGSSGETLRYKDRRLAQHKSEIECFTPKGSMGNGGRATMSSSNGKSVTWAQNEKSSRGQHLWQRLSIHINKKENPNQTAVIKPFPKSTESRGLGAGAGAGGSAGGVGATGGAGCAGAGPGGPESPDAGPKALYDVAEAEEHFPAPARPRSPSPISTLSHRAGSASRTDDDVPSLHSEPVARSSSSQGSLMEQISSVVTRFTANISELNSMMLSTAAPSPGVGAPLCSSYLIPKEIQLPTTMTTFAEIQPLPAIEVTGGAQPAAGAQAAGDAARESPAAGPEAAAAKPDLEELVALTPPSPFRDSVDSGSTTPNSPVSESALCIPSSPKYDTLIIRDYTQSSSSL

Compound	pKi avg
COc1cc(C#N)cc(-c2cc(-c3ccc(F)cn3)ncn2)c1 [Example 25, 3-[6-(5-fluoropyridin-2-yl)pyrimidin-4-yl]-5-methoxybenzonitrile]	8.37
N#Cc1cc(Cl)c(F)c(-c2ccnc(-n3cccn3)c2)c1 [Example 11, 3-chloro-4-fluoro-5-[2-(1H-pyrazol-1-yl)pyridin-4-yl]benzonitrile]	8.16
COCc1cc(C#N)cc(-c2cc(-c3ccc(F)cn3)ncn2)c1 [Example 24, 3-[6-(5-fluoropyridin-2-yl)pyrimidin-4-yl]-5-(methoxymethyl)benzonitrile]	8.57
N#Cc1cc(Cl)c(F)c(-c2cc(-n3cccn3)ccn2)c1 [Example 10, 3-chloro-4-fluoro-5-[4-(1H-pyrazol-1-yl)pyridin-2-yl]benzonitrile]	8.37
N#Cc1cc(Cl)c(F)c(-c2cc(-n3cc(F)cn3)ncn2)c1 [Example 12, 3-chloro-4-fluoro-5-[6-(4-fluoro-1H-pyrazol-1-yl)pyrimidin-4-yl]benzonitrile]	8.00
N#Cc1cc(CF)cc(-c2cc(-n3cccn3)ncn2)c1 [Example 16, 3-(fluoromethyl)-5-[6-(1H-pyrazol-1-yl)pyrimidin-4-yl]benzonitrile]	8.17

Other lines, results leading:

pKi avg	Compound
7.98	N#Cc1cc(C#N)cc(-c2cc(-c3ccccn3)ncn2)c1 [Example 21, 5-[6-(pyridin-2-yl)pyrimidin-4-yl]benzene-1,3-dicarbonitrile]
8.67	Cc1ccc(-c2cc(-c3cc(C)cc(C#N)c3)ncn2)nc1 [Example 23, 3-methyl-5-[6-(5-methylpyridin-2-yl)pyrimidin-4-yl]benzonitrile]
8.27	N#Cc1cc(Cl)cc(-c2cc(-c3ccncn3)ncn2)c1 [Example 6, 3-(4,4′-bipyrimidin-6-yl)-5-chlorobenzonitrile]
8.56	Cc1cc(C#N)cc(-c2cc(-c3ccccn3)ncn2)c1 [Example 4, 3-methyl-5-[6-(pyridin-2-yl)pyrimidin-4-yl]benzonitrile]

System: Male CD-1 mice
Assay: In vivo efficacy test - mouse marble burying
Conditions: 10 and 30 mg/kg po versus vehicle group, dosed 30 min prior to test, one-way ANOVA with Dunnett's post-hoc test
From the text: In Vivo Efficacy Test—Marble Burying

Compound	number of marbles buried
N#Cc1cc(Cl)cc(-c2cc(-c3ccc(F)cn3)ncn2)c1 [Example 17, 3-chloro-5-[6-(5-fluoropyridin-2-yl)pyrimidin-4-yl]benzonitrile]	statistically significant decrease
